Test results published in patent US11321826B2, “High throughput method for accurate prediction of compound-induced liver injury” (AGENCY FOR SCIENCE, TECHNOLOGY AND RESEARCH, priority 2016, dated 2022).
Read-outs that look alike come from different tables or passages of the source. Where a SMILES comes first, the peptide text is derived from it.

Columns and labels:
hepatocytes in vivo = conditions: cited from earlier work
HepaRG cells = experiment: High-content imaging of HepaRG cells after fluorescent staining of RELA and nuclear DNA; conditions: 16 h treatment; puromycin 100 μg/mL, acarbose 1000 μg/mL, tetracycline 1000 μg/mL, ethylene glycol 100 μg/mL, lithium chloride 1000 μg/mL; FIG. 3
Procedure: The HepG2 cells were cultured in T75 Corning Costar flasks with Dulbecco's modified eagle medium (DMEM) supplemented with 10% fetal bovine serum (FBS) and 1% penicillin-streptomycin. The HepG2 cells were seeded into 384-well black plates with transparent bottom (#781091; Greiner, Kremsmuenster, Austria) at a density of 10.000 cells/cm^2. The HepG2 cells were cultured for three days to attain confluency before overnight compound treatment of sixteen hours. The HepaRG cells were directly seeded at a density of 250.000 cells/cm^2 into 384-well black plates with transparent bottom (#781091; Greiner) coated with 100 μg/mL collagen I. For the first twenty-four hours of cultivation a Williams E medium, supplemented with HepaRG Thaw, Plate & General Purpose medium was used. […]
Screening was performed by using a dose-range of the following seven concentrations for each compound: 2 μM, 15 μM, 63 μM, 125 μM, 250 μM, 500 μM and 1 mM. […] Z′ values of each plate were calculated and values were all above 0.5, ranging from 0.62 to 0.89.
Cells were fixed for six hours with 3.7% formaldehyde in phosphate-buffered saline (PBS) after sixteen hours of compound exposure. […] F-actin was detected on every plate with rhodamine phalloidin (#R415; 1:100; Invitrogen, Singapore). […]

[1] = tested on: other organs than the liver; conditions: in vivo; cited from earlier work
[2] = classification based on literature on compound-induced clinical effects in humans

Row | SMILES | toxicity for hepatocytes in vivo (hepatocytes in vivo; [2]) | other results
1 | COC(=O)[C@H](Cc1ccccc1)NC(=O)[C@@H](N)CC(=O)O [Aspartame] (H-Asp-Phe-OMe) | not toxic | –
2 | Cn1cnc([N+](=O)[O-])c1Sc1ncnc2nc[nH]c12 [Azathioprine] | toxic | –
3 | [Cl][Cd][Cl] [Cadmium Chloride] | toxic | –
4 | Cn1c(=O)c2c(ncn2C)n(C)c1=O [Caffeine] | not toxic | –
5 | OCCO [Ethylene glycol, ethylene glycol] | – | phenotypic changes / altered distribution of RELA (NF-κB p65) in HepaRG cells versus vehicle control (HepaRG cells): did not induce obvious phenotypic changes; toxicity in humans for other organs than the liver [1]: nephrotoxic and neurotoxic
6 | CN1CCCC1c1cccnc1 (centres unmarked) [Nicotine] | – | toxicity for hepatocytes in vivo (hepatocytes in vivo; human, in vivo): not toxic
7 | COc1ccc(C[C@H](N)C(=O)N[C@H]2[C@@H](O)[C@H](n3cnc4c(N(C)C)ncnc43)O[C@@H]2CO)cc1 [Puromycin, puromycin] | toxic | –
8 | C[C@H]1O[C@H](O[C@H]2[C@H](O)[C@@H](O)[C@@H](O[C@H]3[C@H](O)[C@@H](O)C(O)O[C@@H]3CO)O[C@@H]2CO)[C@H](O)[C@@H](O)[C@@H]1N[C@H]1C=C(CO)[C@@H](O)[C@H](O)[C@H]1O (some centres unmarked) [acarbose] | toxic for hepatocytes in vivo | –
9 | [Cl-].[Li+] [lithium chloride] | – | toxicity in humans for other organs than the liver [1]: nephrotoxic
10 | CN(C)[C@@H]1C(O)=C(C(N)=O)C(=O)[C@@]2(O)C(O)=C3C(=O)c4c(O)cccc4[C@@](C)(O)[C@H]3C[C@@H]12 [tetracycline] | toxic for hepatocytes in vivo | –
